Results from patent US20100022553A1, “Therapeutic Combination Comprising an Aurora Kinase Inhibitor and Imatinib” (NERVIANO MEDICAL SCIENCES S.R.L., priority 2008, published 2010).

Experiments:
[1] = tested on: Human myeloid leukemia K-562 cell line; conditions: K562 s.c. in SCID mice, Imatinib 100 mg/kg per os, days 7-15; for Time to reach 1 g: Compound 1 15 mg/kg intraperitoneally twice a day; for T-C: delay of treated vs control tumors to reach 1 g, Compound 1 15 mg/kg i.p.
Method: SCID female mice, from Harlan (Italy), were maintained in cages with paper filter cover, food and bedding sterilized and water acidified.
For in vivo experiments 10^7 K562 cells were implanted subcutaneously in SCID mice.
Tumor growth and body weight were measured every 3 days. Tumor growth was assessed by caliper. […] This delay (T-C value) was defined as the difference of time (in days) required for the treatment group (T) and the control group(C) tumors to reach a predetermined size (1 g).
Toxicity was evaluated on the basis of body weight reduction.

[2] = molecular target: T315I mutation of Abl (Bcr-Abl) (Homo sapiens, UniProt P00519, T315I); conditions: cited from earlier work

| Structure (SMILES) | Time to reach 1 g [1] | T-C [1] | activity against the T315I mutation [2] |
| --- | --- | --- | --- |
| CO[C@@H](C(=O)N1Cc2[nH]nc(NC(=O)c3ccc(N4CCN(C)CC4)cc3)c2C1)c1ccccc1 [Compound 1, N-[5-(2-Methoxy-2-phenyl-acetyl)-1,4,5,6-tetrahydro-pyrrolo[3,4-c]pyrazol-3-yl]-4-(4-methyl-piperazin-1yl)-benzamide] | 27.3 days | 11.5 days |  |
| Cc1ccc(NC(=O)c2ccc(CN3CCN(C)CC3)cc2)cc1Nc1nccc(-c2cccnc2)n1 [Imatinib] | 25.1 days | 9.3 days |  |
| Cc1ccc(NC(=O)c2ccc(CN3CC[C@H](N(C)C)C3)c(C(F)(F)F)c2)cc1Nc1nccc(-c2cncnc2)n1 [Inno-406] |  |  | inactive |
